Tested on: 931267-113-T-J1-PDC multicell spheroid viability
Assay: Anticancer human tumor 931267-113-T-J1-PDC patient-derived colon adenocarcinoma cell line growth inhibition [PI3K]
Conditions: for IC50: curve of first compound; for viability, T/C: stronger effect = lower value; active means viability on the fitted dose curve at most 10% of control; inactive means the rest
Summary of the method: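 High-throughput combination screen: PI3K inhibitors crossed with targeted small molecules on complex spheroids of tumor cells, HUVEC and MSCs at 37 degrees C, 5% CO2. Top concentration was at or near clinical Cmax (otherwise 10 microM), with half-log decrements.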

[1] = second compound 0.0316 µM, first compound 0.0316 µM
[2] = second compound 0.0316 µM, first compound 0.1 µM
[3] = second compound 0.0316 µM, first compound 0.316 µM
[4] = second compound 0.0316 µM, first compound 1 µM
[5] = second compound 0.0316 µM, first compound 3.16 µM
[6] = second compound 0.0316 µM, first compound 10 µM
[7] = second compound 0.1 µM, first compound 0.0316 µM
[8] = second compound 0.1 µM, first compound 0.1 µM
[9] = second compound 0.1 µM, first compound 0.316 µM
[10] = second compound 0.1 µM, first compound 1 µM
[11] = second compound 0.1 µM, first compound 3.16 µM
[12] = second compound 0.1 µM, first compound 10 µM
[13] = second compound 0.316 µM, first compound 0.0316 µM
[14] = second compound 0.316 µM, first compound 0.1 µM
[15] = second compound 0.316 µM, first compound 0.316 µM
[16] = second compound 0.316 µM, first compound 1 µM
[17] = second compound 0.316 µM, first compound 3.16 µM
[18] = second compound 0.316 µM, first compound 10 µM
[19] = second compound 1 µM, first compound 0.0316 µM
[20] = second compound 1 µM, first compound 0.1 µM
[21] = second compound 1 µM, first compound 0.316 µM
[22] = second compound 1 µM, first compound 1 µM
[23] = second compound 1 µM, first compound 3.16 µM
[24] = second compound 1 µM, first compound 10 µM
[25] = second compound 3.16 µM, first compound 0.0316 µM
[26] = second compound 3.16 µM, first compound 0.1 µM
[27] = second compound 3.16 µM, first compound 0.316 µM
[28] = second compound 3.16 µM, first compound 1 µM
[29] = second compound 3.16 µM, first compound 3.16 µM
[30] = second compound 3.16 µM, first compound 10 µM
[31] = second compound 10 µM, first compound 0.0316 µM
[32] = second compound 10 µM, first compound 0.1 µM
[33] = second compound 10 µM, first compound 0.316 µM
[34] = second compound 10 µM, first compound 1 µM
[35] = second compound 10 µM, first compound 3.16 µM
[36] = second compound 10 µM, first compound 10 µM
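Further: viability read 7 days after compound addition.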

C=CC(=O)N1CCN(c2nc(=O)n(-c3c(C)ccnc3C(C)C)c3nc(-c4c(O)cccc4F)c(F)cc23)C(C)C1 (stereo not drawn) + Cc1nc(NC(=O)N2CCCC2C(N)=O)sc1-c1ccnc(C(C)(C)C(F)(F)F)c1
inactive: viability, T/C [1] 86.3% | viability, T/C [2] 91.1% | viability, T/C [3] 99.2% | viability, T/C [4] 104% | viability, T/C [5] 108% | viability, T/C [6] 85.5% | viability, T/C [7] 99.6% | viability, T/C [8] 78.7% | viability, T/C [9] 85.7% | viability, T/C [10] 100% | viability, T/C [11] 105% | viability, T/C [12] 82.7% | viability, T/C [13] 80.6% | viability, T/C [14] 87.2% | viability, T/C [15] 94.1% | viability, T/C [16] 91.8% | viability, T/C [17] 84.7% | viability, T/C [18] 76.9% | viability, T/C [19] 83.5% | viability, T/C [20] 76.6% | viability, T/C [21] 73.9% | viability, T/C [22] 83.7% | viability, T/C [23] 94.7% | viability, T/C [24] 65.6% | viability, T/C [25] 66.3% | viability, T/C [26] 71.3% | viability, T/C [27] 71.1% | viability, T/C [28] 72.7% | viability, T/C [29] 71.2% | viability, T/C [30] 59% | viability, T/C [31] 54.6% | viability, T/C [32] 55.2% | viability, T/C [33] 59.2% | viability, T/C [34] 62.6% | viability, T/C [35] 62.4% | viability, T/C [36] 49%
> 10 µM: IC50 (second compound 0.0316 µM) | IC50 (second compound 0.1 µM) | IC50 (second compound 0.316 µM) | IC50 (second compound 1 µM) | IC50 (second compound 3.16 µM) | IC50 (second compound 10 µM)

CCN1CCN(Cc2ccc(Nc3ncc(F)c(-c4cc(F)c5nc(C)n(C(C)C)c5c4)n3)nc2)CC1 + Cc1nc(NC(=O)N2CCCC2C(N)=O)sc1-c1ccnc(C(C)(C)C(F)(F)F)c1
inactive: viability, T/C (second compound 0.0316 µM, first compound 0.00316 µM) 91.7% | viability, T/C (second compound 0.0316 µM, first compound 0.01 µM) 99.6% | viability, T/C [1] 100% | viability, T/C [2] 103% | viability, T/C [3] 94.3% | viability, T/C [4] 86.2% | viability, T/C (second compound 0.1 µM, first compound 0.00316 µM) 98% | viability, T/C (second compound 0.1 µM, first compound 0.01 µM) 97.1% | viability, T/C [7] 102% | viability, T/C [8] 96.5% | viability, T/C [9] 84.6% | viability, T/C [10] 84.5% | viability, T/C (second compound 0.316 µM, first compound 0.00316 µM) 91.2% | viability, T/C (second compound 0.316 µM, first compound 0.01 µM) 81.2% | viability, T/C [13] 96.1% | viability, T/C [14] 91.8% | viability, T/C [15] 81% | viability, T/C [16] 75.1% | viability, T/C (second compound 1 µM, first compound 0.00316 µM) 69.4% | viability, T/C (second compound 1 µM, first compound 0.01 µM) 83.1% | viability, T/C [19] 79.7% | viability, T/C [20] 77.5% | viability, T/C [21] 71.5% | viability, T/C [22] 62.4% | viability, T/C (second compound 3.16 µM, first compound 0.00316 µM) 71.4% | viability, T/C (second compound 3.16 µM, first compound 0.01 µM) 80.7% | viability, T/C [25] 66.8% | viability, T/C [26] 61.9% | viability, T/C [27] 55.8% | viability, T/C [28] 59.4% | viability, T/C (second compound 10 µM, first compound 0.00316 µM) 58.6% | viability, T/C (second compound 10 µM, first compound 0.01 µM) 57% | viability, T/C [31] 50.1% | viability, T/C [32] 43.3% | viability, T/C [33] 50.4% | viability, T/C [34] 57.2%
> 1 µM: IC50 (second compound 0.0316 µM) | IC50 (second compound 0.1 µM) | IC50 (second compound 0.316 µM) | IC50 (second compound 1 µM) | IC50 (second compound 3.16 µM) | IC50 (second compound 10 µM)

Cn1ncc(Cl)c1-c1cc(C(=O)NC(CN)Cc2cccc(F)c2)sc1Cl (stereo not drawn) + Cc1nc(NC(=O)N2CCCC2C(N)=O)sc1-c1ccnc(C(C)(C)C(F)(F)F)c1
4.15 µM: IC50 (second compound 3.16 µM)
5.52 µM: IC50 (second compound 0.316 µM)
6.31 µM: IC50 (second compound 0.0316 µM)
inactive: viability, T/C [1] 97.3% | viability, T/C [2] 89% | viability, T/C [3] 88.7% | viability, T/C [4] 73.6% | viability, T/C [5] 79.7% | viability, T/C [6] 33.6% | viability, T/C [7] 101% | viability, T/C [8] 86% | viability, T/C [9] 91.4% | viability, T/C [10] 85% | viability, T/C [11] 68.3% | viability, T/C [12] 29.4% | viability, T/C [13] 89.3% | viability, T/C [14] 94% | viability, T/C [15] 83.2% | viability, T/C [16] 85.9% | viability, T/C [17] 68.2% | viability, T/C [18] 30.2% | viability, T/C [19] 84.3% | viability, T/C [20] 84.7% | viability, T/C [21] 77% | viability, T/C [22] 68.7% | viability, T/C [23] 59.9% | viability, T/C [24] 30.1% | viability, T/C [25] 73.6% | viability, T/C [26] 61.7% | viability, T/C [27] 66.9% | viability, T/C [28] 63.8% | viability, T/C [29] 58.8% | viability, T/C [30] 23.5% | viability, T/C [31] 69.9% | viability, T/C [32] 61.6% | viability, T/C [33] 58.7% | viability, T/C [34] 60.5% | viability, T/C [35] 48.9% | viability, T/C [36] 21.9%
5.39 µM: IC50 (second compound 0.1 µM)
2.63 µM: IC50 (second compound 10 µM)
4.31 µM: IC50 (second compound 1 µM)

Cn1nccc1Nc1nccc(-c2ccn(C(CO)c3ccc(Cl)c(F)c3)c(=O)c2)n1 (stereo not drawn) + Cc1nc(NC(=O)N2CCCC2C(N)=O)sc1-c1ccnc(C(C)(C)C(F)(F)F)c1
inactive: viability, T/C [1] 94.7% | viability, T/C [2] 90.4% | viability, T/C [3] 92.4% | viability, T/C [4] 77.2% | viability, T/C [5] 57.5% | viability, T/C [6] 37.3% | viability, T/C [7] 102% | viability, T/C [8] 88.4% | viability, T/C [9] 82.8% | viability, T/C [10] 68.9% | viability, T/C [11] 52.9% | viability, T/C [12] 31.7% | viability, T/C [13] 90.3% | viability, T/C [14] 92.2% | viability, T/C [15] 77.9% | viability, T/C [16] 68% | viability, T/C [17] 43.9% | viability, T/C [18] 27.5% | viability, T/C [19] 86.4% | viability, T/C [20] 78.5% | viability, T/C [21] 71.4% | viability, T/C [22] 54% | viability, T/C [23] 39.5% | viability, T/C [24] 19.1% | viability, T/C [25] 74.9% | viability, T/C [26] 65.2% | viability, T/C [27] 58.1% | viability, T/C [28] 43.6% | viability, T/C [29] 36.3% | viability, T/C [30] 15.2% | viability, T/C [31] 57% | viability, T/C [32] 50.7% | viability, T/C [33] 45.2% | viability, T/C [34] 39.4% | viability, T/C [35] 26.4% | viability, T/C [36] 14.3%
4.76 µM: IC50 (second compound 0.0316 µM)
0.143 µM: IC50 (second compound 10 µM)
0.65 µM: IC50 (second compound 3.16 µM)
1.47 µM: IC50 (second compound 1 µM)
2.38 µM: IC50 (second compound 0.316 µM)
3.57 µM: IC50 (second compound 0.1 µM)
